Source: patent US20130102499A1, “METHOD FOR DETERMINATION OF ACTIVITY OF MITOCHONDRIAL DNA POLYMERASE OF FALCIPARUM MALARIA, AND METHOD FOR SCREENING FOR ANTI-MALARIA COMPOUND” (OCHANOMIZU UNIVERSITY, priority 2010, published 2013)
Each block holds one molecule with its values, some of them ahead of it.

Legend:
[1] = test system: PFF1225c (C1 fragment), mitochondrial DNA polymerase; experiment: DNA polymerase activity measurement of PFF1225c (C1 fragment), sensitivity to inhibitors; assay type: biochemical, Plasmodium falciparum; conditions: for inhibition action to the DNA polymerase activity: FIG. 12a, FIG. 13a
Description: When a ^3H amount taken in a DNA chain is measured with a liquid scintillation counter, the pigment of an iron ion causes quenching and an accurate measurement thus cannot be attained. Quenching is classified into three types such as chemical quenching, oxygen quenching, and coloration quenching, and calculation efficiency of a liquid scintillation counter decreases. The case of ^3H being a soft β ray particularly becomes a problem, and coloration quenching becomes a problem in the case of an iron ion. Thus, gallic acid that forms a complex with iron was used and gallic acid iron that is a purple complex was formed. […] The protocol in the case of adding an iron ion is shown below.
In order to prevent oxidation of iron, the reaction solution was exposed to a nitrogen gas for 30 minutes to be degassed.
The reaction solution obtained by adding 50 mM Tris-HCl (pH 7.5), 1 mM dTTP, 40 nM PolydA-dT12, and 10 mM FeCl2 and adjusted to be the total amount of 20 μl with degassed distilled water (DW). […] After the incubation, an iron ion was chelated by adding 10 μl of 100 mM EDTA to terminate the reaction. PicoGreen™ (Molecular Probes), which specifically binds to double-stranded DNA, was used in order to quantitatively determine an amount of DNA synthesized by the DNA polymerase.

[2] = test system: apicoplast DNA polymerase (POMUPfprex); conditions: reported; cited from earlier work
[3] = test system: various DNA polymerases; conditions: reported; binds non-specifically; cited from earlier work
[4] = target: T1, DNA polymerase γ (Homo sapiens, UniProt P54098); conditions: at a concentration from 50 to 100 mM; reported; cited from earlier work
T1 sequence (P54098 1-1239): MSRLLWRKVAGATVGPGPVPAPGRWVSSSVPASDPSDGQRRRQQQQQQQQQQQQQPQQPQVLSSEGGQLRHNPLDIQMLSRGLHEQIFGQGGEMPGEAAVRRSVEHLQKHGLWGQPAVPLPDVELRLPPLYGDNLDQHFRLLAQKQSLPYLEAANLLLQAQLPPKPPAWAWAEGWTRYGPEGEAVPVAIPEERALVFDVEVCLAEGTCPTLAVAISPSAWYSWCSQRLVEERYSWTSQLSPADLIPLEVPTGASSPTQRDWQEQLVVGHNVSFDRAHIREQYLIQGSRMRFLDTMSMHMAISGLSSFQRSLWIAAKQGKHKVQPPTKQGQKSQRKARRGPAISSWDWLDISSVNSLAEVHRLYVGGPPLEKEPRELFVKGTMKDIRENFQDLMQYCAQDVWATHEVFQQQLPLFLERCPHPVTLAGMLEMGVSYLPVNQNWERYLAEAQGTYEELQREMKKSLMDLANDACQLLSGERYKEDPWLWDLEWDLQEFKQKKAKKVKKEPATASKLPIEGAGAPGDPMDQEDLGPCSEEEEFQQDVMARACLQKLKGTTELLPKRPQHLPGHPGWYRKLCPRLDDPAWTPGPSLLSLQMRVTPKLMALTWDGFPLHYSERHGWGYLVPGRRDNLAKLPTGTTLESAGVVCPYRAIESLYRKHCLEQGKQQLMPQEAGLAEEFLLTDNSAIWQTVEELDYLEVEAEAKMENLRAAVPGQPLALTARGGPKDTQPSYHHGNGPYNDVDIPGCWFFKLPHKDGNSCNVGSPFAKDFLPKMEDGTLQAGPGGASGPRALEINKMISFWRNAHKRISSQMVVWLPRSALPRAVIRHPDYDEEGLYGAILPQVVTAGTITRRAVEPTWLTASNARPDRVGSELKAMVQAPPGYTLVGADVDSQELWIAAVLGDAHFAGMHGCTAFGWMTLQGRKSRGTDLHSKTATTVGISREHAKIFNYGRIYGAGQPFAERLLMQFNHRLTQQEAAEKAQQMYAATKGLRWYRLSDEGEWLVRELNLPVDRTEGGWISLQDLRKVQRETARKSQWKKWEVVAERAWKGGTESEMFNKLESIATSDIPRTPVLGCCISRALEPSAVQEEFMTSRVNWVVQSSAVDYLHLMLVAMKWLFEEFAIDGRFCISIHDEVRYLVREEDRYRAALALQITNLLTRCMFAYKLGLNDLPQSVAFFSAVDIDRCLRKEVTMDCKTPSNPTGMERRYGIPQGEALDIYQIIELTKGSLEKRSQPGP

[5] = test system: DNA polymerase γ-like enzyme; conditions: Non-patent Document 5; cited from earlier work
[6] = target: T2, human mitochondrial DNA polymerase γ (Homo sapiens, UniProt P54098); experiment: DNA polymerase activity, human mitochondrial DNA polymerase γ; assay type: biochemical; conditions: FIG. 12c
T2 sequence (P54098 1-1239): T1 sequence (P54098 1-1239)
Description: 0.1 μg of a C1 fragment was added per 10 μl. The mixed reaction solution was incubated at 37° C. for 30 minutes, then adsorbed to filter paper, dried, and washed with 5% Na2HPO4 4 times (for 10 minutes for each washing), thereafter washing twice with distilled water (DW) (for 5 minutes for each washing), and finally shaken with 100% ethanol for 5 minutes. The filter paper was then dried and the dried filter paper was contained in a vial container charged with 4 ml of a toluene cocktail, and an intake amount of ^3H was measured with a liquid scintillation counter.

[7] = test system: PpPolA; conditions: FIG. 12b
Description: A reaction solution was obtained by adding 50 mM Tris-HCl, 0.5 mM dATP, dGTP, dCTP, 5 μM dTTP, activated DNA (0.5 μg/ml), 0.8 μM [^3H]dTTP (Moravek Co.: (MT-781) Thymidine 5′-triphosphate, tetrasodium salt, [methyl ^3H]), and an enzyme solution was further added thereto, a metallic ion, an inhibitor, etc. having respective concentrations (the total amount of 10 μl). 0.1 μg of a C1 fragment was added per 10 μl. The mixed reaction solution was incubated at 37° C. for 30 minutes, then adsorbed to filter paper, dried, and washed with 5% Na2HPO4 4 times (for 10 minutes for each washing), thereafter washing twice with distilled water (DW) (for 5 minutes for each washing), and finally shaken with 100% ethanol for 5 minutes. The filter paper was then dried and the dried filter paper was contained in a vial container charged with 4 ml of a toluene cocktail, and an intake amount of ^3H was measured with a liquid scintillation counter.

[8] = target: T3, mouse DNA polymerase α (Mus musculus, UniProt P33609); conditions: already reported; cited from earlier work
T3 sequence (P33609 1-1465): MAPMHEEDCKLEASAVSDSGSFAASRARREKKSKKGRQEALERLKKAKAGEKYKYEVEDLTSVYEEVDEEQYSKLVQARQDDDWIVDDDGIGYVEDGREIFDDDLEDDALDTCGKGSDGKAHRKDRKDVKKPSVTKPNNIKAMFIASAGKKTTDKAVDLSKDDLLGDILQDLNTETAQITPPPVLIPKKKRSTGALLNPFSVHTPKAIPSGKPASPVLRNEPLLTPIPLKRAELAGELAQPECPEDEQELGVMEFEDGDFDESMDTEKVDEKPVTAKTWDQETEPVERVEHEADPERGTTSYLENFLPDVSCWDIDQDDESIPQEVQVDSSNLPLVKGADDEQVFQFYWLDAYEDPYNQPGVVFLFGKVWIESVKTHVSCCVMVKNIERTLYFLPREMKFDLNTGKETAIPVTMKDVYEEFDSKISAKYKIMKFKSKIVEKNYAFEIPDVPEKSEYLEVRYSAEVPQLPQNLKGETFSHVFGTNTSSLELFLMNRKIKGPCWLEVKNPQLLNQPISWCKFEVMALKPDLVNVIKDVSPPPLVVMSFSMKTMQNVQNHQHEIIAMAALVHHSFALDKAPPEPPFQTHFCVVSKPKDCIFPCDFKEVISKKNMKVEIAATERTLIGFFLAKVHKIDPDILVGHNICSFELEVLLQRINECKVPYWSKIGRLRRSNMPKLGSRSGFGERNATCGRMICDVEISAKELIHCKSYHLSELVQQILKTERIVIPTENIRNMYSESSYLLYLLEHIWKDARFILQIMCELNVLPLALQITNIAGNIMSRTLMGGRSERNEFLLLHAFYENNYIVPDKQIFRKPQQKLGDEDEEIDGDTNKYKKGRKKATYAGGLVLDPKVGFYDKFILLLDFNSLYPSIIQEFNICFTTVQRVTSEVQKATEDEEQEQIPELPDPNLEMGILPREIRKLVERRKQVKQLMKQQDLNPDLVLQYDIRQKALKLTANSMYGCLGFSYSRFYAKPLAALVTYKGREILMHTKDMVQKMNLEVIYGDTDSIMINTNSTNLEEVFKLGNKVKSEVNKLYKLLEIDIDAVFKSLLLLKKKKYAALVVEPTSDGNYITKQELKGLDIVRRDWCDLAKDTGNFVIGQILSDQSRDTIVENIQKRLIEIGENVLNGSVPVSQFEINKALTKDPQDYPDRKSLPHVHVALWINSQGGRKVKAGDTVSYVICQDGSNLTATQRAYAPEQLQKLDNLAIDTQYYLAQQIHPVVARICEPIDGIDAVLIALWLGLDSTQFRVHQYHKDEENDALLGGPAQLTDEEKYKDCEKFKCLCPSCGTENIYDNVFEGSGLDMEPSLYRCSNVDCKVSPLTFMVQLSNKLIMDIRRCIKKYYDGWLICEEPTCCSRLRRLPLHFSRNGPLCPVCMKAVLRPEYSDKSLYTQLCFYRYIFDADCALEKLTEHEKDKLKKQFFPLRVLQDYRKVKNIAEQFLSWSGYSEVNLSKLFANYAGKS

[9] = target: T4, DNA polymerase γ (Mus musculus, UniProt P54099); conditions: already reported; cited from earlier work
T4 sequence (P54099 1-1218): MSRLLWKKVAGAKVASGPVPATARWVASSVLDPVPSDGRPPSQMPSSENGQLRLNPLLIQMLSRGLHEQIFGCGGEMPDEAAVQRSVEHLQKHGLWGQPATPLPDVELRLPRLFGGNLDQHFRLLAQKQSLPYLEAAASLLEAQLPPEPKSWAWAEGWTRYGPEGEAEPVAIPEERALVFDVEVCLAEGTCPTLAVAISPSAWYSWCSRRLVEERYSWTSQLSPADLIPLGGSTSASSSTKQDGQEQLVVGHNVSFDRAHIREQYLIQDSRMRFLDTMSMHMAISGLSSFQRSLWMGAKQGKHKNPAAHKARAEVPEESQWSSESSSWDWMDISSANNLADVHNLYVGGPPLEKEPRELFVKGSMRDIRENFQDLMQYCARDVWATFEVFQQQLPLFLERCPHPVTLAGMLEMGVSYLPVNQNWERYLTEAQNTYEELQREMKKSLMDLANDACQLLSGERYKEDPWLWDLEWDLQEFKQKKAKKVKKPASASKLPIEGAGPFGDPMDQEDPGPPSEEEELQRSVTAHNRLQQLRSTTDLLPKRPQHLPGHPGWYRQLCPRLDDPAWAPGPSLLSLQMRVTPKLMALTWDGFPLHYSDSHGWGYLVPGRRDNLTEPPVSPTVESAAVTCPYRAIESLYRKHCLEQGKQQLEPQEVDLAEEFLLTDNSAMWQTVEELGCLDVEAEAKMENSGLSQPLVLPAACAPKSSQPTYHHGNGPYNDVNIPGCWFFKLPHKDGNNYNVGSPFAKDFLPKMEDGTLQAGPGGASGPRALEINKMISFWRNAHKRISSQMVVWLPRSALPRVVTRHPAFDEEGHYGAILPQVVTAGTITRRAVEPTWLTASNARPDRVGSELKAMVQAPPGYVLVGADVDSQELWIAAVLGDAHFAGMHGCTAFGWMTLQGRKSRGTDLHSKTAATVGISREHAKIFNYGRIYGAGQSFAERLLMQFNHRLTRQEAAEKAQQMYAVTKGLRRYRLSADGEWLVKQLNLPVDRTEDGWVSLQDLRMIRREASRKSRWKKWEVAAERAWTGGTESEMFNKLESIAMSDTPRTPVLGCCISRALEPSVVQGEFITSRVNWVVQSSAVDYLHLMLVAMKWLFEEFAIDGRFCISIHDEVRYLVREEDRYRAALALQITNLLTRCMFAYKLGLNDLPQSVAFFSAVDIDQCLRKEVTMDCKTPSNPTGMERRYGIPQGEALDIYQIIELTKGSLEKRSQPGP

Structure (SMILES): Cc1ccc(C(=O)Nc2ccc(S(=O)(=O)O)c3cc(S(=O)(=O)O)cc(S(=O)(=O)O)c23)cc1NC(=O)c1cccc(NC(=O)Nc2cccc(C(=O)Nc3cc(C(=O)Nc4ccc(S(=O)(=O)O)c5cc(S(=O)(=O)O)cc(S(=O)(=O)O)c45)ccc3C)c2)c1 [suramin]
- inhibition action to the DNA polymerase activity [1]: inhibited the activity
- inhibition of DNA polymerase activity [2]: inhibitors
- inhibition of DNA polymerase activity [3]: inhibits the activities

Structure (SMILES): Cc1cn([C@H]2CC[C@@H](COP(=O)(O)OP(=O)(O)OP(=O)(O)O)O2)c(=O)[nH]c1=O [ddTTP]
- inhibition effect on DNA polymerase activity ([1]; along with increasing concentration, FIG. 11d): a weak inhibition effect was shown
- remaining DNA polymerase activity ([1]; concentration increased to 400 mM, FIG. 11d): 50%
- inhibition of DNA polymerase activity [4]: mostly inhibited
- sensitivity or resistance of the enzyme to inhibitor [5]: resistance

Structure (SMILES): CCN1C(=O)C=CC1=O [NEM, N-ethylmaleimide]
- DNA polymerase activity on addition of inhibitor ([1]; in the presence at a high concentration, FIG. 11c): the activity scarcely decreased
- sensitivity or resistance of the enzyme to inhibitor [5]: sensitivity

Structure (SMILES): C[C@@]1(CO)[C@H](O)CC[C@@]2(C)[C@H]1CC[C@H]1C[C@@H]3C[C@@]12CC[C@]3(O)CO [aphidicolin]
- DNA polymerase activity on addition of inhibitor ([1]; added at a concentration from 10 to 100 μM, FIG. 11b): the activity scarcely decreased
- sensitivity or resistance of the enzyme to inhibitor [5]: resistance

- inhibition action to the DNA polymerase activity [1]: inhibited the activity
- inhibition action to the DNA polymerase activity [6]: an inhibition effect was not shown
- inhibition action to the DNA polymerase activity [7]: an inhibition effect was not shown
Structure (SMILES): CCN(CC)CCCC(C)Nc1ccnc2cc(Cl)ccc12 (stereo not drawn) [chloroquine]
- inhibition of DNA polymerase activity [8]: does not inhibit
- inhibition of DNA polymerase activity [9]: does not inhibit
- inhibition of DNA polymerase activity [2]: inhibitors

Structure (SMILES): Nc1ncnc2c1ncn2CCOCP(=O)(O)OP(=O)(O)OP(=O)(O)O [PMEApp]
- sensitivity or resistance of the enzyme to inhibitor [5]: resistance
